For orientation: inhibition means the change of the read-out against control, counted positive when it falls.

The structures appear in SMILES notation. Several values for one entry are separate records, joined by “and”; a condition that tells them apart may be missing. Equal entries are not always repeated. Where two headings read alike, the source gives them in different places.

The test system of one data set is HIV-1NL4-3. As to the kind of experiment: HIV-1 infectivity assay in TZM-bl reporter cell line (LTR-luciferase, 48 h). In kind it is cell-based. The settings on record: Human immunodeficiency virus 1, TZM-bl. In outline: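 Nef-dependent infectivity in TZM-bl cells: HIV-1NL4-3 infection with 1 μM compound, luciferase read at 48 h, normalized against DMSO wild-type and Nef-defective controls. Compound cytotoxicity in uninfected cells measured by Cell Titer Blue.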

For the next data set, the system named is TZM-bl cell line. The data set is classed as cell-based. The settings on record: human, 1 μM. In outline: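 TZM-bl cells (HIV-1 LTR-luciferase) infected with HIV-1NL4-3 with compound at 1 μM; luciferase read 48 h later. Percent inhibition normalized to DMSO wild-type infection (0%) and Nef-defective HIV-1 infection (100% of Nef-dependent effect). Viability in uninfected TZM-bl cells by Cell Titer Blue.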

The next data set deals with HIV-1 NefNL4-3 (Human immunodeficiency virus type 1 group M subtype B, UniProt P03406, A33V/T15A/T51N/V11I). As to the kind of experiment: Surface plasmon resonance binding to recombinant full-length Nef (NL4-3). The settings on record: for RU30/RUNef (extent of binding): response units at 30 μM relative to Nef immobilized on the SPR chip; for Nef NL4-3 Binding, SPR 1:1 or 2-site fitting KD1: 1:1 Langmuir fit where the KD2 cell says '1 to 1 fitting', else 2-site fit. Background: SPR reads the build-up and loss of mass on a sensor chip optically.

The mark [1] stands for this setting: 1.0 μM, TZM-bl reporter cell line, Table 4, read-out: % Infectivity Inhibition.
[2] abbreviates: 48 h, Table 1, TZM-bl cells, 1 μM, 48 h, 100% = Nef-defective HIV-1, read-out: HIV-1 Infectivity % Inhibition Norm. to Δ-Nef @ 1 μM.
Setting [3] is: KD, M, Table 4, SPR fit 2-step induced fit, KD = koff/kon × koff2/(koff2 + kon2).
[4] abbreviates: Nef NL4-3 Binding, SPR 2-state fitting KD, Table 1, 2-step induced-fit model.
The mark [5] stands for this setting: Table 4, 2-step induced fit, T = 1/koff2.
Where [6] appears, read: KD, M, Table 4, SPR fit 1:1 Langmuir, KD = koff/kon.
Where [7] appears, read: Table 4, 1:1 Langmuir fit, T = 1/koff.
Where [8] appears, read: read-out: Nef NL4-3 Binding, SPR 1:1 or 2-site fitting KD2, Table 1, 2-site fit, second component.

Regarding `Oc1c(CCC2CCN(c3ncc(F)cn3)CC2)c(C2CC2)nn1-c1nc2cc(Cl)ccc2[nH]1` [Compound I-901, 1-(5-chloro-1H-1,3-benzodiazol-2-yl)-3-cyclopropyl-4-{2-[1-(5-fluoropyrimidin-2-yl)piperidin-4-yl]ethyl}-1H-pyrazol-5-ol], the inhibition at 1 µM with HIV-1NL4-3 (setting [1]) and in the data set with HIV-1NL4-3 (setting [2]) was 14.3% in each case. Further, in the data set on TZM-bl cell line, the “% Cell Viability” value was 100%. Moreover, the “Percent Viability @ 1 μM (TZM-bl cells)” value in the data set on TZM-bl cell line came out at 105.0%. Further, the Kd on HIV-1 NefNL4-3 was determined as 481 nM; at HIV-1 NefNL4-3 (setting [3]) it was 0.0153 nM; at HIV-1 NefNL4-3 (setting [4]), 0.0153 nM. Further, at HIV-1 NefNL4-3 (setting [5]), the “T, minutes (residence time)” value was determined as 2.46E + 05 minutes. Besides, the “RU30/RUNef (extent of binding)” value on HIV-1 NefNL4-3 turned out to be 2.23E- 03.
With `Oc1c(CCc2ccc(Br)cc2)c(-c2ccc(C(F)(F)F)cn2)nn1-c1nc2ccccc2[nH]1` [Compound I-147, 1-(1H-1,3-benzodiazol-2-yl)-4-[2-(4-bromophenyl)ethyl]-3-[5-(trifluoromethyl)pyridin-2-yl]-1H-pyrazol-5-ol], the inhibition at 1 µM in the data set on HIV-1NL4-3 (setting [1]) and in the data set with HIV-1NL4-3 (setting [2]) was 59.3% throughout. Besides, the “% Cell Viability” value in the data set with TZM-bl cell line came out at 97.6%. For the same molecule, in the data set on TZM-bl cell line, the “Percent Viability @ 1 μM (TZM-bl cells)” value stood at 97.6%. Besides, the Kd on HIV-1 NefNL4-3 and at HIV-1 NefNL4-3 (setting [6]) was 0.0752 nM in each case. The “T, minutes (residence time)” value at HIV-1 NefNL4-3 (setting [7]) came to 4.30E + 04 minutes. At HIV-1 NefNL4-3, the “RU30/RUNef (extent of binding)” value amounted to 2.11E- 03.
For `Oc1c(CCc2ccncc2)c(-c2cccc(F)c2)nn1-c1cc(C(F)(F)F)n[nH]1` [Compound I-615, 3-(3-fluorophenyl)-4-[2-(pyridin-4-yl)ethyl]-5′-(trifluoromethyl)-2′H-[1,3′-bipyrazol]-5-ol], the inhibition at 1 µM with HIV-1NL4-3 (48 h, Table 2, TZM-bl cells, 1 μM, 48 h, 100% = Nef-defective HIV-1, read-out: HIV-1 Infectivity % Inhibition Norm. to Δ-Nef @ 1 μM) was 47.9%. For the same molecule, in the data set on TZM-bl cell line, the “Percent Viability @ 1 μM (TZM-bl cells)” value was 98.9%. On HIV-1 NefNL4-3 (Table 2), the “Nef NL4-3 Binding, SPR 1:1 or 2-site fitting KD1” value is listed as “No interaction”.
Turning to `Oc1c(CCc2ccc(F)cc2)c(C2CCOCC2)nn1-c1nc2ccccc2[nH]1` [Compound I-114, 1-(1H-1,3-benzodiazol-2-yl)-4-[2-(4-fluorophenyl)ethyl]-3-(oxan-4-yl)-1H-pyrazol-5-ol], the inhibition at 1 µM with HIV-1NL4-3 (setting [2]) amounted to 78.2%. Moreover, the “Percent Viability @ 1 μM (TZM-bl cells)” value with TZM-bl cell line amounted to 99.5%. Moreover, the Kd on HIV-1 NefNL4-3 is 1770 nM and 1170 nM; on HIV-1 NefNL4-3 (Nef NL4-3 Binding, SPR 1:1 or 2-site fitting KD2, Table 1, 2-site fit, second component) it was 4400 nM; at HIV-1 NefNL4-3 (setting [4]) it was 5560 nM.
Turning to `CC(C)OC(=O)N1CCC(CCc2c(-c3ccc(Br)cn3)nn(-c3nc4ccccc4[nH]3)c2O)CC1` [Compound I-717, propan-2-yl4-{2-[1-(1H-1,3-benzodiazol-2-yl)-3-(5-bromopyridin-2-yl)-5-hydroxy-1H-pyrazol-4-yl]ethyl}piperidine-1-carboxylate], in the data set with HIV-1NL4-3 (setting [2]), the inhibition at 1 µM was -1.8%. Besides, the “Percent Viability @ 1 μM (TZM-bl cells)” value in the data set with TZM-bl cell line stood at 104.1%. Moreover, the “Nef NL4-3 Binding, SPR 1:1 or 2-site fitting KD1” value at HIV-1 NefNL4-3 (Table 1) is listed as “No Interaction”.
As for `CN1CCN(CC(=O)N2CCC(Cc3nn(-c4nc5ccccc5[nH]4)c(O)c3CCc3ccc(F)cc3)CC2)CC1` [Compound I-768, 1-(4-{[1-(1H-1,3-benzodiazol-2-yl)-4-[2-(4-fluorophenyl)ethyl]-5-hydroxy-1H-pyrazol-3-yl]methyl}piperidin-1-yl)-2-(4-methylpiperazin-1-yl)ethan-1-one], in the data set with HIV-1NL4-3 (setting [2]), the inhibition at 1 µM was -34.5%. Also, the “Percent Viability @ 1 μM (TZM-bl cells)” value with TZM-bl cell line is given as 99.8%. In addition, the Kd on HIV-1 NefNL4-3 is 3840 nM.
Consider `CCOC(=O)N1CCC(c2nn(-c3nc4ccccc4[nH]3)c(O)c2CCC2CCOCC2)CC1` [Compound I-723, ethyl 4-[1-(1H-1,3-benzodiazol-2-yl)-5-hydroxy-4-[2-(oxan-4-yl)ethyl]-1H-pyrazol-3-yl]piperidine-1-carboxylate], for which the inhibition at 1 µM in the data set on HIV-1NL4-3 (setting [1]) is 0%; in the data set on HIV-1NL4-3 (setting [2]), -18.1%. Also, the “% Cell Viability” value with TZM-bl cell line is 92.2%. In the data set with TZM-bl cell line, the “Percent Viability @ 1 μM (TZM-bl cells)” value turned out to be 92.2%. In addition, the Kd on HIV-1 NefNL4-3 worked out at 2100 nM; on HIV-1 NefNL4-3 (setting [3]) it was 9090 nM; at HIV-1 NefNL4-3 (setting [4]), 9090 nM; at HIV-1 NefNL4-3 (setting [8]), 12200 nM. Besides, the “T, minutes (residence time)” value on HIV-1 NefNL4-3 (setting [5]) amounted to 5.21E + 00 minutes. Besides, the “RU30/RUNef (extent of binding)” value on HIV-1 NefNL4-3 is listed as 9.19E- 03.
Consider `CC(C)(C)OC(=O)N1CCC(c2nn(-c3nc4cccnc4[nH]3)c(O)c2CCc2ccc(F)cc2)CC1` [Compound I-220, tert-butyl 4-{4-[2-(4-fluorophenyl)ethyl]-5-hydroxy-1-{3H-imidazo[4,5-b]pyridin-2-yl}-1H-pyrazol-3-yl}piperidine-1-carboxylate], for which the inhibition at 1 µM with HIV-1NL4-3 (setting [1]) and in the data set on HIV-1NL4-3 (setting [2]) was 9.8% throughout. Moreover, the “% Cell Viability” value in the data set with TZM-bl cell line is given as 100%. In addition, the “Percent Viability @ 1 μM (TZM-bl cells)” value with TZM-bl cell line came to 103.6%. In addition, the Kd at HIV-1 NefNL4-3 came out at 283 nM; on HIV-1 NefNL4-3 (setting [3]), 3950 nM; on HIV-1 NefNL4-3 (setting [4]), 3950 nM; at HIV-1 NefNL4-3 (setting [8]), 3820 nM. Further, the “T, minutes (residence time)” value at HIV-1 NefNL4-3 (setting [5]) was 6.92E + 00 minutes. For the same molecule, the “RU30/RUNef (extent of binding)” value at HIV-1 NefNL4-3 was 7.24E- 03.
Turning to `Oc1c(CCc2ccc(F)cc2)c(-c2ccc(C(F)(F)F)nc2)nn1-c1nc2ccccc2[nH]1` [Compound I-135, 1-(1H-1,3-benzodiazol-2-yl)-4-[2-(4-fluorophenyl)ethyl]-3-[6-(trifluoromethyl)pyridin-3-yl]-1H-pyrazol-5-ol], the inhibition at 1 µM in the data set with HIV-1NL4-3 (setting [1]) and in the data set on HIV-1NL4-3 (setting [2]) was 35.7% each time. Moreover, in the data set with TZM-bl cell line, the “% Cell Viability” value stood at 91.9%. In the data set with TZM-bl cell line, the “Percent Viability @ 1 μM (TZM-bl cells)” value amounted to 91.9%. In addition, the Kd on HIV-1 NefNL4-3 was 636 nM; at HIV-1 NefNL4-3 (setting [3]) it was 14.7 nM; at HIV-1 NefNL4-3 (setting [4]) it was 14.7 nM. For the same molecule, the “T, minutes (residence time)” value on HIV-1 NefNL4-3 (setting [5]) worked out at 1.47E + 03 minutes. On HIV-1 NefNL4-3, the “RU30/RUNef (extent of binding)” value came to 2.87E- 03.
On to `Oc1c(CCc2ccccn2)c(-c2ccc(C(F)(F)F)cn2)nn1-c1nc2ccccc2[nH]1` [Compound I-146, 1-(1H-1,3-benzodiazol-2-yl)-4-[2-(pyridin-2-yl)ethyl]-3-[5-(trifluoromethyl)pyridin-2-yl]-1H-pyrazol-5-ol], for which the inhibition at 1 µM in the data set with HIV-1NL4-3 (setting [1]) and in the data set with HIV-1NL4-3 (setting [2]) was 5.7% throughout. Moreover, in the data set with TZM-bl cell line, the “% Cell Viability” value was 98.5%. The “Percent Viability @ 1 μM (TZM-bl cells)” value in the data set with TZM-bl cell line is 98.5%. For the same molecule, the Kd at HIV-1 NefNL4-3 and at HIV-1 NefNL4-3 (setting [6]) was 1650 nM each time. Further, on HIV-1 NefNL4-3 (setting [7]), the “T, minutes (residence time)” value was found to be 3.67E + 00 minutes. In addition, the “RU30/RUNef (extent of binding)” value on HIV-1 NefNL4-3 came out at 6.42E- 04.
Take `CS(=O)(=O)c1ccc(-c2nn(-c3nc4ccccc4[nH]3)c(O)c2CCC2CCN(CC(F)(F)F)CC2)cc1` [Compound I-154, 1-(1H-1,3-benzodiazol-2-yl)-3-(4-methanesulfonylphenyl)-4-{2-[1-(2,2,2-trifluoroethyl)piperidin-4-yl]ethyl}-1H-pyrazol-5-ol]: the inhibition at 1 µM with HIV-1NL4-3 (setting [1]) amounted to 45.4%. Further, the inhibition at 1 µM in the data set on HIV-1NL4-3 (setting [2]) was determined as 45.4%. For the same molecule, in the data set with TZM-bl cell line, the “% Cell Viability” value is 69.3% and the “Percent Viability @ 1 μM (TZM-bl cells)” value is on record as 69.3%. Also, on HIV-1 NefNL4-3, the Kd was 28800 nM and the “RU30/RUNef (extent of binding)” value was 4.50E- 03. Further, on HIV-1 NefNL4-3 (setting [6]), the Kd is 28800 nM. Moreover, the “T, minutes (residence time)” value at HIV-1 NefNL4-3 (setting [7]) is listed as 6.80E + 00 minutes.

The values above are taken from patent US20220380341A1, “INHIBITORS OF HIV-1 NEF FOR THE TREATMENT OF HIV DISEASE” (priority 2018, published 2022).
